Drawing on patent US20230348424A1, “HETEROCYCLIC COMPOUNDS AND METHODS OF USE” (Schrödinger, Inc., priority 2022, published 2023), this text covers IC50 for 33 molecules.

A value given as a limit tells only on which side of the number the result lay.

For this test, the target named is SOS1:KRAS (G12C) interaction (Homo sapiens (Human), UniProt Q07889). In words: SOS1 KRas(G12C) FRET Assay. The following applies: 0.5 nM His10-SOS1 (res. 564-1049), 2.5 nM GST-KRAS G12C (res. 1-169), 2 hrs at RT. The test is classed as binding. As to the method:
Inhibition of the SOS 1:KRAS interaction was measured using purified GST-tagged KRAS (res. 1-169, G12C, purified based on Hillig, et al., Proc Natl Acad Sci USA (2019); 116(7):2551-2560) and recombinant His10-SOS1 (res. 564-1049; purified based on Hillig, et al.). The final assay was performed at 20 uL with 0.5 nM SOS1 protein and 2.5 nM KRAS protein in a buffer of PBS, 0.1% BSA, 5 mM MgCh, 0.0025% Igepal, 100 mM KF, 5 mM DTT in a white 384 square well OptiPlate (PerkinElmer, Cat. 6007290). A 2x KRAS working solution was prepared in an assay buffer containing 5 nM GST-KRAS G12C and 2 nM anti-GST-Eu(K) (Cisbio, Cat. 61GSTKLA) and pre-incubated for 15 minutes at 25° C. […] The final DMSO concentration is 0.5%. Plates were incubated at RT for 2 hrs before the FRET signal was measured using Envision at emission 665 nm and 615 nm. FRET signal was converted to percentage of protein-protein interaction using the following equation:
• C: signal with compound treatment • P: signal for positive control (DMSO) • N: signal for negative control (no SOS1 added)
IC50 and Hill coefficients were obtained using Graph Pad Prism (Graph Pad software, Inc, USA) with non-linear regression analysis.

Chain of SOS1:KRAS (G12C) interaction (Q07889 564-1049, stated change not applied): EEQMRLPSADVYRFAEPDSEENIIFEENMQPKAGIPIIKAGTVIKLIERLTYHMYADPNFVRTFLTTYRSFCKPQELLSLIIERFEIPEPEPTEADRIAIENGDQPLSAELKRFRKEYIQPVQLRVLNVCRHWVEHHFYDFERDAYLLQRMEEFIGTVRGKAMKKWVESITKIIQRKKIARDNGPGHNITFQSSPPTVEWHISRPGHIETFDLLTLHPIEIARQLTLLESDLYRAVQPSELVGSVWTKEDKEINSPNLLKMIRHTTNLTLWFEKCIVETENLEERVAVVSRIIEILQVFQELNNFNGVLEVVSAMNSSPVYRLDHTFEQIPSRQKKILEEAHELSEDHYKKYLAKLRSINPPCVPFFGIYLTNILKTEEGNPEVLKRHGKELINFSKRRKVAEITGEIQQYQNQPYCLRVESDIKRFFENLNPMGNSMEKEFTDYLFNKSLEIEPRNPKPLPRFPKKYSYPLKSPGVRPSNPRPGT

In general, IC50 refers to the concentration that gives 50% inhibition. Low values mean greater potency, high ones weaker potency. In turn, `Cc1c([C@@H](C)NC(=O)c2cn(C3CCOCC3)c(=O)cc2NC2[C@@H]3C[C@H]2CN(C)C3)cccc1C(F)(F)F` (single isomer, unassigned) [Example 22] came in with an IC50 of 25.9 nM.

Take `Cc1c([C@@H](C)NC(=O)c2cn(C3CCOCC3)c(=O)cc2N[C@H]2[C@@H]3C[C@H]2CN(C)C3)cccc1C(F)(F)F` (single isomer, unassigned) [Example 23]: the IC50 amounted to 47.1 nM.

`Cc1c([C@@H](C)NC(=O)c2cn(C3CCOCC3)c(=O)cc2N[C@@H]2[C@@H]3CC[C@H]2CN(C)C3)cccc1C(F)(F)F` (single isomer, unassigned) [Example 31] yielded an IC50 of 27.6 nM.

For `Cc1c([C@@H](C)NC(=O)c2cn(C3CCOCC3)c(=O)cc2N[C@H]2[C@@H]3CC[C@H]2CN(C)C3)cccc1C(F)(F)F` (single isomer, unassigned) [Example 32], the half-maximal inhibitory concentration (IC50) was found to be 58.2 nM.

With `Cc1c([C@@H](C)NC(=O)c2cn(C3CCOCC3)c(=O)cc2N[C@H]2CCCN(C)CC2)cccc1C(F)(F)F` (single isomer, unassigned) [Example 33], inhibition was half-maximal at 18 nM (IC50).

Regarding `Cc1c([C@@H](C)NC(=O)c2cn(C3CCOCC3)c(=O)cc2N[C@@H]2CCCN(C)CC2)cccc1C(F)(F)F` (single isomer, unassigned) [Example 34], the IC50 is 22.9 nM.

The molecule `Cc1c([C@@H](C)NC(=O)c2cn(C3CCOCC3)c(=O)cc2N[C@@H]2C[C@@H]3CC[C@H]2N3C)cccc1C(F)(F)F` (single isomer, unassigned) [Example 37] had an IC50 of 32.9 nM.

`Cc1c([C@@H](C)NC(=O)c2cn(C3CCOCC3)c(=O)cc2N[C@H]2C[C@H]3CC[C@@H]2N3C)cccc1C(F)(F)F` (single isomer, unassigned) [Example 38] showed an IC50 of 45.8 nM.

In the case of `Cc1c([C@@H](C)NC(=O)c2cn(C3CCOCC3)c(=O)cc2N[C@H]2CCN(C)C3(CC3)C2)cccc1C(F)(F)F` (single isomer, unassigned) [Example 39], 43.7 nM corresponded to half-maximal inhibition (IC50).

`Cc1c([C@@H](C)NC(=O)c2cn(C3CCOCC3)c(=O)cc2N[C@@H]2CCN(C)C3(CC3)C2)cccc1C(F)(F)F` (single isomer, unassigned) [Example 40]: it took 11.8 nM to reach half-maximal inhibition (IC50).

For the molecule `C[C@@H](NC(=O)c1cn(C2(C(F)F)CC2)c(=O)cc1N[C@@H]1CCN(C)C[C@@H]1F)c1cccc(C(F)F)c1F` (single isomer, unassigned) [Example 67], the IC50 came to 10.6 nM.

As to `C[C@@H](NC(=O)c1cn(C2(C(F)F)CC2)c(=O)cc1N[C@H]1CCN(C)C[C@H]1F)c1cccc(C(F)F)c1F` (single isomer, unassigned) [Example 68], the IC50 worked out at 14.3 nM.

As to `C[C@@H](NC(=O)c1cn([C@H]2C[C@@H]2C2CC2)c(=O)cc1NC1CCN(C)CC1)c1cccc(C(F)F)c1F` (single isomer, unassigned) [Example 73], the IC50 worked out at 13 nM.

As to `COc1ccc([C@@H](C)NC(=O)c2cn(C3(C(F)F)CC3)c(=O)cc2NC2CCN(C)CC2)c(F)c1C(F)(F)F` (single isomer, unassigned) [Example 165], half-maximal inhibition (IC50) was put at 7940 nM.

Regarding `COc1ccc([C@H](C)NC(=O)c2cn(C3(C(F)F)CC3)c(=O)cc2NC2CCN(C)CC2)c(F)c1C(F)(F)F` (single isomer, unassigned) [Example 166], the IC50 worked out at 193 nM.

In turn, `C[C@@H](NC(=O)c1cn(C2(C(F)F)CC2)c(=O)cc1NC1CCN(C)CC1)c1ccc(F)c(C(F)(F)F)c1` (single isomer, unassigned) [Example 167] gave an IC50 of more than 10000 nM.

`C[C@H](NC(=O)c1cn(C2(C(F)F)CC2)c(=O)cc1NC1CCN(C)CC1)c1ccc(F)c(C(F)(F)F)c1` (single isomer, unassigned) [Example 168] registered an IC50 of 561 nM.

Turning to `Cc1cc([C@@H](C)NC(=O)c2cn(C3(C(F)F)CC3)c(=O)cc2NC2CCN(C)CC2)cc(C(F)(F)F)n1` (single isomer, unassigned) [Example 171], the midpoint of inhibition, the IC50, lay at 1250 nM.

Take `Cc1cc([C@H](C)NC(=O)c2cn(C3(C(F)F)CC3)c(=O)cc2NC2CCN(C)CC2)cc(C(F)(F)F)n1` (single isomer, unassigned) [Example 172]: the IC50 was more than 10000 nM.

In turn, `C[C@@H](NC(=O)c1cn(C23CC(C2)C3)c(=O)cc1N[C@H]1[C@@H]2CN(C)C[C@@H]21)c1cccc(C#N)c1Cl` (single isomer, unassigned) [Example 177] gave an IC50 of 55.6 nM.

As for `C[C@H](NC(=O)c1cn(C23CC(C2)C3)c(=O)cc1N[C@H]1[C@@H]2CN(C)C[C@@H]21)c1cccc(C#N)c1Cl` (single isomer, unassigned) [Example 178], the IC50 was more than 10000 nM.

`C[C@@H](NC(=O)c1cn(C2(C(F)F)CC2)c(=O)cc1N[C@H]1CCCn2cncc21)c1cccc(C(F)F)c1F` (single isomer, unassigned) [Example 183] yielded an IC50 of 6.1 nM.

In turn, `C[C@@H](NC(=O)c1cn(C2(C(F)F)CC2)c(=O)cc1N[C@@H]1CCCn2cncc21)c1cccc(C(F)F)c1F` (single isomer, unassigned) [Example 184] gave an IC50 of 55.8 nM.

The molecule `Cc1c(C#N)cccc1[C@@H](C)NC(=O)c1cn([C@@H]2[C@@H](C)C2(F)F)c(=O)cc1N[C@H]1[C@@H]2CN(C)C[C@@H]21` (single isomer, unassigned) [Example 193] displayed an IC50 of 151 nM.

`Cc1c(C#N)cccc1[C@@H](C)NC(=O)c1cn([C@H]2[C@H](C)C2(F)F)c(=O)cc1N[C@H]1[C@@H]2CN(C)C[C@@H]21` (single isomer, unassigned) [Example 194] had an IC50 of 19.3 nM.

On to `C[C@@H]1[C@@H](n2cc(C(=O)N[C@H](C)c3cccc(C(C)(F)F)c3F)c(N[C@H]3[C@@H]4CN(C)C[C@@H]43)cc2=O)C1(F)F` (single isomer, unassigned) [Example 195], for which inhibition was half-maximal at 5.44 nM (IC50).

In turn, `C[C@@H](NC(=O)c1cn([C@H]2[C@H](C)C2(F)F)c(=O)cc1N[C@H]1[C@@H]2CN(C)C[C@@H]21)c1cccc(C(C)(F)F)c1F` (single isomer, unassigned) [Example 196] gave an IC50 of 43.2 nM.

Consider `C[C@@H]1[C@@H](n2cc(C(=O)N[C@H](C)c3cccc(C(F)(F)F)c3F)c(N[C@H]3[C@@H]4CN(C)C[C@@H]43)cc2=O)C1(F)F` (single isomer, unassigned) [Example 197], for which the IC50 came to 31.7 nM.

`C[C@@H](NC(=O)c1cn([C@H]2[C@H](C)C2(F)F)c(=O)cc1N[C@H]1[C@@H]2CN(C)C[C@@H]21)c1cccc(C(F)(F)F)c1F` (single isomer, unassigned) [Example 198] showed an IC50 of 3.41 nM.

`C[C@@H](NC(=O)c1cn([C@@H]2CC2(F)F)c(=O)cc1N[C@H]1[C@@H]2CN(C)C[C@@H]21)c1cccc(C(F)(F)F)c1F` (single isomer, unassigned) [Example 199] came in with an IC50 of 10.1 nM.

Consider `C[C@@H](NC(=O)c1cn([C@H]2CC2(F)F)c(=O)cc1N[C@H]1[C@@H]2CN(C)C[C@@H]21)c1cccc(C(F)(F)F)c1F` (single isomer, unassigned) [Example 200], for which half-maximal inhibition (IC50) required 16.7 nM.

For the molecule `C[C@@H](NC(=O)c1cn([C@@H]2CC2(F)F)c(=O)cc1N[C@H]1[C@@H]2CN(C)C[C@@H]21)c1cccc(C(C)(F)F)c1F` (single isomer, unassigned) [Example 201], half-maximal inhibition (IC50) was put at 14 nM.

For `C[C@@H](NC(=O)c1cn([C@H]2CC2(F)F)c(=O)cc1N[C@H]1[C@@H]2CN(C)C[C@@H]21)c1cccc(C(C)(F)F)c1F` (single isomer, unassigned) [Example 202], the IC50 came out at 19.5 nM.
